These results are taken from patent US9655882B2, “Compositions and methods for treatment of neurodegenerative disease” (THE JOHNS HOPKINS UNIVERSITY, priority 2008, dated 2017).

Data set [1] concerns Mouse retinal ganglion cells (RGCs). Nature of the data set: Live-dead assay of cultured mouse RGCs (Cellomics VTI HCS reader), live cell count. The conditions noted are these: approximately 2 days culture, various concentrations, FIG. 4.
Data set [2] relates to mouse RGCs. Nature of the data set: RGC survival in purified primary mouse RGC culture (high-content screening, Calcein AM/Hoechst/Ethidium Homodimer-1). The format is cell-based.
Experimental: Purified mouse RGCs were grown in Neurobasal, 2% B27, 1% N2 supplement, 0.5 mM glutamine. […] Increasing concentrations of kinase inhibitors were present in the media as indicated. Viability and neurite growth of RGCs were assayed by a combined staining with Calcein AM, Hoechst, and Ethidium Homodimer-1. The images were taken and processed by Cellomics Kineticscan.
RGC survival and neurite growth were quantitatively measured as average surviving RGCs/field (4 mm^2) (FIG. 2C), total neurite length per RGC (FIG. 2D), average neurite length per RGC (FIG. 2E), and total neurite count per RGC (FIG. 2F).
In data set [3] the test system is mouse RGCs. Nature of the data set: RGC neurite growth in purified primary mouse RGC culture (high-content screening). In kind it is cell-based. The conditions noted are these: Example 4, at 100 nM.
Experimental: Purified mouse RGCs were grown in Neurobasal, 2% B27, 1% N2 supplement, 0.5 mM glutamine. 2 μM forskolin was present in all the conditions except vehicle control with DMSO (dark bar), for 60 hours. Increasing concentrations of kinase inhibitors were present in the media as indicated. Viability and neurite growth of RGCs were assayed by a combined staining with Calcein AM, Hoechst, and Ethidium Homodimer-1. The images were taken and processed by Cellomics Kineticscan. […] Error bars: S.E.M.
RGC survival and neurite growth were quantitatively measured as average surviving RGCs/field (4 mm^2) (FIG. 2C), total neurite length per RGC (FIG. 2D), average neurite length per RGC (FIG. 2E), and total neurite count per RGC (FIG. 2F). Error bars: S.E.M.
To enhance the assay sensitivity, the culture condition is defined to support a baseline level of RGC viability (20˜60% surviving RGCs after three days in culture) and neurite growth by 2.5 μM forskolin.
For data set [4], the system named is mouse RGCs. The format is in vivo. The conditions noted are these: for RGC loss / RGC survival after optic nerve injury: intravitreal injection of 1 μl (2 mM) every three days for nine days. The text has this:
. Mouse optic nerve crush is a well-established animal model in mimicking the pathological conditions in which the primary injury sites are focal to RGC axons such as in glaucoma, AION, traumatic optic neuropathy, and multiple sclerosis. Specific RGC loss following nerve crush, which largely spares displaced amacrine cells in GCL, is thought to result from incomplete understood mechanism that implicates the blockage of retrograde axonal transport and subsequently impaired neurotrophin signaling, and excitotoxicity etc. In addition, mouse optic nerve crush has been successfully employed as an experimental system to identify the genetic nature controlling RGC susceptibility to axon injury.
During the procedure, the optic nerve was carefully exposed through a post-orbital approach, and crushed with a self-closing forceps for three seconds. […] Since RGCs populate ˜60% cells in rodent GCL, the estimated surviving RGC is ˜57.3%. […]. […]

Data set [5] deals with mouse RGCs. The data set can be described thus: Excitotoxicity (glutamate, KA, NMDA, AMPA) in purified mouse RGCs in vitro. The conditions noted are these: 1 μM sunitinib. The format is cell-based. Here is the method:
Neuronal toxicity of excitatory amino acid glutamate and its analogue NMDA is implicated in a number of neurodegenerative conditions that involve RGC, such as glaucoma, optic neuropathies of trauma and other origins, and that affect other CNS structures, such as Alzheimer's disease, Parkinson's disease, Huntington's disease, stroke, and […] (ALS). […] RGC viability was measured and the percentage of RGC loss due to the excitotoxicity was calculated.

For data set [6], the system named is activated Caspase-3. The data set can be described thus: Activated Caspase-3 positive (apoptotic) cells in GCL after mouse optic nerve crush. In kind it is in vivo. The conditions noted are these: three days following nerve crush, systemic treatment. The text has this:
Apoptosis has been identified as the major form of RGC death in many, if not all, degenerative conditions targeting their axons, and in mouse optic nerve.

Data set [7] concerns RGC. Nature of the data set: RGC survival under Flt3 ligand with or without sunitinib. In kind it is cell-based.
The target of data set [8] is T1, FLT3 (Homo sapiens, UniProt P36888).
T1 sequence (P36888 27-993): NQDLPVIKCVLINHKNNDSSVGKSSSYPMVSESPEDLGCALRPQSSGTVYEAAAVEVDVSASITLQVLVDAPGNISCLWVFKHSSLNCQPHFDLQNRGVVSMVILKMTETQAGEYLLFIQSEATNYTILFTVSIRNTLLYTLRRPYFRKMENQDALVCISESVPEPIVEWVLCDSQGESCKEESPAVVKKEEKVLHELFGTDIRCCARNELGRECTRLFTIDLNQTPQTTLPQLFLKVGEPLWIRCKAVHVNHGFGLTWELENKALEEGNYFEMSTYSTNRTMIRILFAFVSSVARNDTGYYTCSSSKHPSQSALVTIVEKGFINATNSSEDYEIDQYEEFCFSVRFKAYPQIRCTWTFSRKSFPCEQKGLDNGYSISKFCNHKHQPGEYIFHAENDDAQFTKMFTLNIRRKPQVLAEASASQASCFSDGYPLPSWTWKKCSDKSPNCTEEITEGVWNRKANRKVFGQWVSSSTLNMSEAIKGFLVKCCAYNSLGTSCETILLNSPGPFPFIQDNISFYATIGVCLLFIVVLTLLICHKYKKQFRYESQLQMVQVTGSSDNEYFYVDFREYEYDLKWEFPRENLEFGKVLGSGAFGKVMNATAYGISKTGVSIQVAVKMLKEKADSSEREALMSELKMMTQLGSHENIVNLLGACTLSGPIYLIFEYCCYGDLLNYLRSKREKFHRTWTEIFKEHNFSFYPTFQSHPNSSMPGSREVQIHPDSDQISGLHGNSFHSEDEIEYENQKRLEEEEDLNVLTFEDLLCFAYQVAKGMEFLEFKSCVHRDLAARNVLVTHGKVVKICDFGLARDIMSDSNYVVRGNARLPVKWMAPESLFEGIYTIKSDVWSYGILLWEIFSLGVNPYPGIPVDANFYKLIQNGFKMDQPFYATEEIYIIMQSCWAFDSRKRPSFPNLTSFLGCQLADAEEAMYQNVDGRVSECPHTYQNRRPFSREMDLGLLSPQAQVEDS
The conditions noted are these: cited from earlier work.

Where two headings read alike, the source gives them in different places.

On to `CN(C)S(=O)(=O)c1ccc2c(c1)/C(=C/c1cc3c([nH]1)CCCC3)C(=O)N2` [SU6656, (3Z)—N,N-dimethyl-2-oxo-3-(4,5,6,7-tetrahydro-1H-indol-2-ylmethylidene)-1H-indole-5-sulfonamide], for which, in data set [1], the “RGC survival (live cell count)” value is “significantly increased RGC survival”.

For `CNC(=O)c1cc(Oc2ccc(NC(=O)Nc3ccc(Cl)c(C(F)(F)F)c3)cc2)ccn1` [Sorafenib], in data set [2] (Example 4, clinical protein kinase inhibitors, purified primary mouse RGC culture), the “pro-surviving activity on RGCs” value is recorded as “lacking strong protective activity to RGC”. Further, the RGC neurite growth result in data set [3] is recorded as “stimulate neurite growth as potently as sunitinib (1 μM)”.

As to `O=C(NC1CCOCC1)c1ccc(-c2cc(-c3c[nH]nc3-c3ccccn3)ccn2)cc1` [TGF-beta receptor inhibitor], the “RGC loss / RGC survival after optic nerve injury” value in data set [4] is reported as “capable of reducing RGC loss”; in data set [4] (listed as drawing 10), “increased RGC survival”.

In the case of `CCN(CC)CCNC(=O)c1c(C)[nH]c(/C=C2\C(=O)Nc3ccc(F)cc32)c1C` [sunitinib, N-[2-(diethylamino)ethyl]-5-[(Z)-(5-fluoro-1,2-dihydro-2-oxo-3H-indol-3-ylidine)methyl]-2,4-dimethyl-1H-pyrrole-3-carboxamide], in data set [4] (mouse, in vivo), the “projected surviving RGCs” value is 79.2%. Besides, the appearance of retina entry in data set [4] (mouse, in vivo, 15 mg/kg/day) was “obvious yellow appearance”. For the same molecule, in data set [4] (systemic administration of 5 mg/kg/day for ten days after optic nerve crush), the “cells in GCL survived” value is about 88.5%. The “toxicity to RGC in vitro” value in data set [2] (concentrations higher than 1 μM) is reported as “higher concentrations exhibit toxicity”. The “reduction of RGC loss caused by AMPA” value in data set [5] (100 μM AMPA) was 4 folds. In addition, the “reduction of RGC loss caused by NMDA” value in data set [5] (100 μM NMDA) was about 10 folds. The “reduction of number of apoptotic cells in GCL” value in data set [6] is recorded as 38.9%. For the same molecule, the “antagonism of detrimental effects of Flt31 on RGC” value in data set [7] (Flt31 at 16 ng/ml, sunitinib present in the media) turned out to be 1.4 fold.

B1: Flt31: Flt3 ligand, RTK ligand (protein, UniProt P49771 27-235, looked up)
Fms-related tyrosine kinase 3 …: TQDCSFQHSPISSDFAVKIRELSDYLLQDYPVTVASNLQDEELCGGLWRLVLAQRWMERLKTVAGSKMQGLLERVNTEIHFVTKCAFQPPPSCLRFVQTNISRLLQETSEQLVALKPWITRQNFSRCLELQCQPDSSTLPPPWSPRPLEATAPTAPQPPLLLLLLLPVGLLLLAAAWCLHWQRTRRRTPRPGEQVPPVPSPQDLLLVEH
As for B1, the EC50 in data set [8] is 4 ng/mL. Further, the “effect on RGC survival” value in data set [7] (Flt31 at 4 ng/ml) is recorded as “did not appear to affect RGC survival”. Further, in data set [7] (Flt31 at 4 ng/ml with sunitinib), the “compromise of the pro-surviving activity of sunitinib” value was found to be 36.6%. For the same molecule, the “reduction of RGC survival” value in data set [7] (Flt31 at 16 ng/ml) is 38.3%.

The EC50 is the concentration giving half of the maximal effect.
